Several values for one entry are separate records, joined by “and”; a condition that tells them apart may be missing. Identical values can stand only once. Like-named read-outs stand apart in the source and are kept apart here.
Legend:
reticulocytes = assay: Percentage of reticulocytes among total erythrocytes (bone marrow toxicity), pre-magnetic field analysis
[1] = Mortality in 28-day 1,3-PS study; type: in vivo, Sprague Dawley rat; conditions: 50 mg/kg/day oral gavage, group of six male rats
Experimental: Groups consisting of six male Sprague Dawley rats (7-8 weeks old) were treated on twenty-eight consecutive days (i.e., days 1 through 28) with either water (vehicle), 12.5 mg 1,3-PS per kilogram body weight per day, 25 mg 1,3-PS per kilogram body weight per day, or 50 mg 1,3-PS per kilogram body weight per day via oral gavage. […] Tail vein blood specimens were collected on day −1 (i.e., one day before the start of treatment), and again on days 15, 29, and 42.

[2] = test system: Pig-A mutant phenotype RBCs and RETs; assay: Pig-A mutation assay, technical replicates (Example 1): flow cytometric scoring of CD59-negative RBCs/RETs before and after immunomagnetic separation; conditions: 60 mg/kg/day oral gavage days 1-3, blood day 29
[3] = test system: Pig-A mutant phenotype RBCs and RETs; assay: Pig-A mutation assay, spiking experiment (Example 2); conditions: blood day 35
[4] = test system: Pig-A mutant phenotype RBCs and RETs
[5] = calculated from pre- and post-magnetic field ratios, technical replicates, listed as PS
[6] = post-magnetic field, 4 min acquisition, technical replicates, listed as PS
[7] = post-magnetic field, technical replicates, listed as PS
[8] = pre-magnetic field, 3 min acquisition, technical replicates of one rat, listed as PS
[9] = "100" sample: 40 mg/kg/day 1,3-PS days 1-14, from pre- and post-magnetic field ratios (Table VI), listed as 100
[10] = "100" sample: 40 mg/kg/day 1,3-PS days 1-14, post-magnetic field, 4 min, listed as 100
[11] = "100" sample: 40 mg/kg/day 1,3-PS days 1-14, post-magnetic field, listed as 100
[12] = 28 consecutive days oral gavage, 6 male rats per group, maximum observed on d29
[13] = 28 consecutive days oral gavage, 6 male rats per group, maximum observed on d42

O=S1(=O)CCCO1 [1,3-Propane Sultone, 1,3-propane sultone]
% RET (reticulocytes; 60 mg/kg/day oral gavage days 1-3, blood day 29, technical replicates, listed as PS): 4.02% and 4.08% (2×) | % RET versus vehicle (in words) (reticulocytes; 12.5, 25, 50 (reduced to 37.5) mg/kg/day for 28 days, Day 15, FIG. 5A): reduced in a dose-dependent manner | % RET (reticulocytes; "100" sample: 40 mg/kg/day 1,3-PS oral gavage days 1-14, blood day 35, listed as 100): 5.92% and 5.9% | Mortality [1]: one rat in the high dose group died on day 11 | Frequencies of mutant phenotype RBCs and RETs versus vehicle (in words) [2]: clearly led to elevated frequencies of mutant phenotype RBCs and RETs | Mutant RBCs per 10^6 Total RBCs [2, 5]: 61.1 per 10^6 Total RBCs and 65.7 per 10^6 Total RBCs and 55 per 10^6 Total RBCs | Mutant RETs per 10^6 Total RETs [2, 5]: 22 per 10^6 Total RETs and 16.6 per 10^6 Total RETs and 17.7 per 10^6 Total RETs | Mutant NCEs (events counted), POST-Magnetic Field Analyses [2, 6]: 6,466 and 7,590 and 7,054 | Mutant RETs (events counted), POST-Magnetic Field Analyses [2, 6]: 95 and 79 and 94 | Mutant RBC:Bead Ratio, POST-Magnetic Field Analyses [2, 7]: 0.4138 and 0.4132 (2×) | Mutant RET:Bead Ratio, POST-Magnetic Field Analyses [2, 7]: 0.00599 and 0.00426 and 0.3748 | Mutant NCEs (events counted), PRE-Magnetic Field Analyses [2, 8]: 83 and 75 and 64 | Mutant RETs (events counted), PRE-Magnetic Field Analyses [2, 8]: 1 (2×) and 2 | Mutant RBCs per 10^6 Total RBCs [3, 9]: 30 per 10^6 Total RBCs and 34.1 per 10^6 Total RBCs | Mutant RETs per 10^6 Total RETs [3, 9]: 25.2 per 10^6 Total RETs and 31.2 per 10^6 Total RETs | Mutant RBCs per 10^6 Total RBCs (Post-Column) ([3]; "100" sample: 40 mg/kg/day 1,3-PS days 1-14, post-column, avg 112,632,575 RBCs interrogated per sample, listed as 100): 30 per 10^6 Total RBCs and 34.1 per 10^6 Total RBCs | Mutant NCEs (events counted), POST-Magnetic Field Analyses [3, 10]: 3,304 and 3,192 | Mutant RETs (events counted), POST-Magnetic Field Analyses [3, 10]: 173 and 182 | Mutant RBC:Bead Ratio, POST-Magnetic Field Analyses [3, 11]: 0.2402 and 0.2497 | Mutant RET:Bead Ratio, POST-Magnetic Field Analyses [3, 11]: 0.01195 and 0.01347 | Mutant RBCs per 10^6 Total RBCs (Pre-Column) ([3]; "100" sample: 40 mg/kg/day 1,3-PS days 1-14, pre-column, avg 1,323,693 RBCs interrogated per sample): 27 per 10^6 Total RBCs | Mutant NCEs (events counted), PRE-Magnetic Field Analyses ([3]; "100" sample: 40 mg/kg/day 1,3-PS days 1-14, pre-magnetic field, 3 min, listed as 100): 36 and 31 | Mutant RETs (events counted), PRE-Magnetic Field Analyses ([3]; "100" sample: blood of rat given 40 mg/kg/day 1,3-PS oral gavage days 1-14, pre-magnetic field, 3 min): 1 | Mutant RBC frequency versus vehicle-treated rats (in words) ([4]; 12.5, 25, 50 (reduced to 37.5) mg/kg/day for 28 days, Day 15 through Day 42, FIG. 5C): significantly higher than those observed in vehicle-treated rats from Day 15 through Day 42 | Mutant RET frequency versus vehicle controls (in words) ([4]; 12.5, 25, 50 (reduced to 37.5) mg/kg/day for 28 days, days 15, 29, 42, FIG. 5B, Dunnett's t-test p<0.05): each dose group was significantly elevated relative to vehicle controls at every time point studied | Maximum Avg. Mutant Cell Freq., Mutant RETs [4, 12]: 106 Mutant RETs (d29); × 10^−6 | Maximum Avg. Mutant Cell Freq., Mutant RBCs [4, 13]: 72 Mutant RBCs (d42) × 10^−6

CC(=O)Nc1ccc2c(c1)Cc1ccccc1-2 [2-Acetylaminofluorene]
Maximum Avg. Mutant Cell Freq., Mutant RBCs [4, 12]: 58 Mutant RBCs (d29) × 10^−6 | Maximum Avg. Mutant Cell Freq., Mutant RETs [4, 13]: 50 Mutant RETs (d42); × 10^−6

Cn1cnc([N+](=O)[O-])c1Sc1ncnc2nc[nH]c12 [Azathioprine]
Maximum Avg. Mutant Cell Freq., Mutant RETs ([4]; male, Sprague Dawley, rat, in vivo, po, 29 day): 13 Mutant RETs (d29); × 10^−6 | Maximum Avg. Mutant Cell Freq., Mutant RBCs ([4]; male, Sprague Dawley, rat, in vivo, po, 42 day): 4 Mutant RBCs (d42) × 10^−6

O=C(O)CCCc1ccc(N(CCCl)CCCl)cc1 [Chlorambucil]
Maximum Avg. Mutant Cell Freq., Mutant RBCs [4, 13]: 21 Mutant RBCs (d42) × 10^−6 | Maximum Avg. Mutant Cell Freq., Mutant RETs [4, 13]: 40 Mutant RETs (d42); × 10^−6

O=P1(N(CCCl)CCCl)NCCCO1 (stereo not drawn) [Cyclophosphamide]
Maximum Avg. Mutant Cell Freq., Mutant RETs [4, 12]: 5 Mutant RETs (d29); × 10^−6 | Maximum Avg. Mutant Cell Freq., Mutant RBCs [4, 13]: 3 Mutant RBCs (d42) × 10^−6

N[C@@H](Cc1ccc(N(CCCl)CCCl)cc1)C(=O)O [Melphalan]
Maximum Avg. Mutant Cell Freq., Mutant RBCs [4, 13]: 23 Mutant RBCs (d42) × 10^−6 | Maximum Avg. Mutant Cell Freq., Mutant RETs [4, 13]: 33 Mutant RETs (d42); × 10^−6

S=P(N1CC1)(N1CC1)N1CC1 [Thiotepa]
Maximum Avg. Mutant Cell Freq., Mutant RETs [4, 12]: 79 Mutant RETs (d29); × 10^−6 | Maximum Avg. Mutant Cell Freq., Mutant RBCs [4, 13]: 69 Mutant RBCs (d42) × 10^−6

Source: US9133505B2 (priority 2010, dated 2015)
